Values quoted from earlier work in patent US6780852B2 (priority 1997, dated 2004).

## Ferric gluconate
  transient hypotension and flushing, share of exposed patients: 1%
